# Assay results reported in patent US20230159532A1, “PARATHYROID HORMONE (PTH) RECEPTOR ANTAGONISTS AND USES THEREOF” (Crinetics Pharmaceuticals, Inc., priority 2021, published 2023).
# Molecular target: T1, human PTHR1 receptor (Homo sapiens, UniProt Q03431)
# T1 construct: purchased Eurofins HTS030M
# T1 sequence (Q03431 27-593): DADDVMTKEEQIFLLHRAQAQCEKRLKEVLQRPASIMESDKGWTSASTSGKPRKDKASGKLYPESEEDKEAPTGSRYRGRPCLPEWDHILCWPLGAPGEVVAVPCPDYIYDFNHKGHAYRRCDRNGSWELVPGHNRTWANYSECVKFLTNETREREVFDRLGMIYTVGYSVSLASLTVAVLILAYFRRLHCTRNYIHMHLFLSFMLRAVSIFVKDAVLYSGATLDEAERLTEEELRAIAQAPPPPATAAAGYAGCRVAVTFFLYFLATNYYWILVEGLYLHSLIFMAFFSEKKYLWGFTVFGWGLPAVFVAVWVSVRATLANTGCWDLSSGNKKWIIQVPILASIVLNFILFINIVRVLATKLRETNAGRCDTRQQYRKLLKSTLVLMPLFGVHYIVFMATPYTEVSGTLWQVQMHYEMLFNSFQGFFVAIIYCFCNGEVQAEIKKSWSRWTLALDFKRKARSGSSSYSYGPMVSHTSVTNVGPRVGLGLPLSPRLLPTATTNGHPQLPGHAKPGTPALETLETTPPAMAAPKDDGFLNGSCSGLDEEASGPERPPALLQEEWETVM
# Assay: Competitive antagonist binding assay for hPTH-R1 (radioactive competition binding, SPA beads)
# Conditions: human PTHR1 membranes, [125I]-[Nle8,18,Tyr34]-PTH(1-34) 0.2 nM, 90 minutes at room temperature; read-out: hPTHR1 Ki
# Procedure: Competitive Antagonist Binding Assay Protocol for hPTH-R1 Antagonists:
# The inhibition of binding to the human PTHR1 receptor was measured in a radioactive competition binding assay using the radiolabeled [^125I]-[NLE^8,18, TYR^34]-parathyroid hormone (1-34) ligand (PerkinElmer Cat# NEX244, custom synthesis) as the probe ligand for the receptor. Briefly, membranes from cells expressing the human PTHR1 (Eurofins Cat# HTS030M) were incubated with SPA beads (PerkinElmer Cat# RPNQ0001) in binding assay buffer [50 mM HEPES (Biopioneer Cat# C0113), 5 mM MgCl2 (Sigma Cat# M8266), 10 mM CaCl2 (Fisher Scientific Cat# BP510), 0.1% BSA (Fisher Scientific Cat# BP1600), 0.01% TritonX-100 (Bio-Rad Cat#161-0407), and protease inhibitors (Pierce Cat# A32963); pH 7.4]. Membranes bound to SPA bead were treated with various dilutions of compounds (final concentrations typically 0-10,000 nM), and 0.2 nM radiolabeled ligand in 96-well isoplates (PerkinElmer Cat#6005040) for 90 minutes at room temperature. The radioactive signal was detected using a MicroBetaTriLux 1450 LSC (PerkinElmer). All data manipulations to determine the Ki values were performed using GraphPad v8 (GraphPad, San Diego Calif.).
row,Ki,Structure (SMILES)
1,< 0.1 µM,"CCN1C(=O)N(c2c(F)cc(NCCNCCC#N)cc2F)c2cc(C#N)ccc2-c2cc(Cl)cnc21 [1-154, 4-chloro-10-[4-({2-[(2-cyanoethyl)amino]ethyl}amino)-2,6-difluorophenyl]-8-ethyl-9-oxo-6,8,10-triazatricyclo[9.4.0.0^2,7]pentadeca-1(11),2(7),3,5,12,14-hexaene-13-carbonitrile]"
2,< 0.1 µM,"CCN1C(=O)N(c2c(F)cc(N3CC[C@@H](N)C3)cc2F)c2cc(Cl)ccc2-c2cc(Cl)cnc21 [1-42, 10-{4-[(3R)-3-aminopyrrolidin-1-yl]-2,6-difluorophenyl}-4,13-dichloro-8-ethyl-6,8,10-triazatricyclo[9.4.0.0^2,7]pentadeca-1(11),2(7),3,5,12,14-hexaen-9-one]"
3,< 0.1 µM,"C[C@@H](CO)NCCNc1cc(F)c(N2C(=O)N(C)c3ncc(Cl)cc3-c3ccc(C#N)cc32)c(F)c1 [1-205, 4-chloro-10-{2,6-difluoro-4-[(2-{[(2S)-1-hydroxypropan-2-yl]amino}ethyl)amino]phenyl}-8-methyl-9-oxo-6,8,10-triazatricyclo[9.4.0.0^2,7]pentadeca-1(11),2(7),3,5,12,14-hexaene-13-carbonitrile]"
4,< 0.1 µM,"CCN1C(=O)N(c2c(F)cc(NCCNCC(C)(C)O)cc2F)c2cc(C#N)ccc2-c2cc(Cl)cnc21 [1-138, 4-chloro-10-[2,6-difluoro-4-({2-[(2-hydroxy-2-methylpropyl)amino]ethyl}amino)phenyl]-8-ethyl-9-oxo-6,8,10-triazatricyclo[9.4.0.0^2,7]pentadeca-1(11),2(7),3,5,12,14-hexaene-13-carbonitrile]"
5,< 0.1 µM,"CCN1C(=O)N(c2c(F)cc(NCCNC)cc2F)c2cc(C#N)ccc2-c2cc(F)cnc21 [1-81, 10-(2,6-difluoro-4-{[2-(methylamino)ethyl]amino}phenyl)-8-ethyl-4-fluoro-9-oxo-6,8,10-triazatricyclo[9.4.0.0^2,7]pentadeca-1(11),2(7),3,5,12,14-hexaene-13-carbonitrile]"
6,< 0.1 µM,"Cc1cc(Cl)cc2c1-c1cc(F)cnc1N(C)C(=O)N2c1c(F)cc(NCCNCCCC(=O)O)cc1F [1-77, 4-({2-[(4-{13-chloro-4-fluoro-8,15-dimethyl-9-oxo-6,8,10-triazatricyclo[9.4.0.0^2,7]pentadeca-1(11),2(7),3,5,12,14-hexaen-10-yl}-3,5-difluorophenyl)amino]ethyl}amino)butanoic acid]"
7,< 0.1 µM,"CCN1C(=O)N(c2c(F)cc(N3CCC(NCCO)C3)cc2F)c2cc(C#N)ccc2-c2cc(Cl)cnc21 (stereo not drawn) [1-182, 4-chloro-10-(2,6-difluoro-4-{3-[(2-hydroxyethyl)amino]pyrrolidin-1-yl}phenyl)-8-ethyl-9-oxo-6,8,10-triazatricyclo[9.4.0.0^2,7]pentadeca-1(11),2(7),3,5,12,14-hexaene-13-carbonitrile]"
8,0.1 to 1 µM,"CNCCNc1cc(F)c(N2C(=O)N(CCO)c3ncc(F)cc3-c3ccc(C#N)cc32)c(F)c1 [1-121, 10-(2,6-difluoro-4-{[2-(methylamino)ethyl]amino}phenyl)-4-fluoro-8-(2-hydroxyethyl)-9-oxo-6,8,10-triazatricyclo[9.4.0.0^2,7]pentadeca-1(11),2(7),3,5,12,14-hexaene-13-carbonitrile]"
9,< 0.1 µM,"CCN1C(=O)N(c2c(F)cc(NCCNC[C@@H](O)CO)cc2F)c2cc(C#N)ccc2-c2cc(Cl)cnc21 [1-183, 4-chloro-10-{4-[(2-{[(2R)-2,3-dihydroxypropyl]amino}ethyl)amino]-2,6-difluorophenyl}-8-ethyl-9-oxo-6,8,10-triazatricyclo[9.4.0.0^2,7]pentadeca-1(11),2(7),3,5,12,14-hexaene-13-carbonitrile]"
10,< 0.1 µM,"CCN1C(=O)N(c2ccc(NCCNC)cc2)c2cc(Cl)ccc2-c2cc(F)cnc21 [2-4, 13-chloro-8-ethyl-4-fluoro-10-(4-{[2-(methylamino)ethyl]amino}phenyl)-6,8,10-triazatricyclo[9.4.0.0^2,7]pentadeca-1(11),2(7),3,5,12,14-hexaen-9-one]"
11,< 0.1 µM,"CCN1C(=O)N(c2c(F)cc(NCCNCC(=O)O)cc2F)c2cc(Cl)ccc2-c2cc(Cl)cnc21 [1-242, 2-({2-[(4-{4,13-dichloro-8-ethyl-9-oxo-6,8,10-triazatricyclo[9.4.0.0^2,7]pentadeca-1(11),2(7),3,5,12,14-hexaen-10-yl}-3,5-difluorophenyl)amino]ethyl}amino)acetic acid]"
12,< 0.1 µM,"CCN1C(=O)N(c2c(F)cc(NCCN(C)CCCC(=O)O)cc2F)c2cc(Cl)ccc2-c2cc(Cl)cnc21 [1-70, 4-({2-[(4-{4,13-dichloro-8-ethyl-9-oxo-6,8,10-triazatricyclo[9.4.0.0^2,7]pentadeca-1(11),2(7),3,5,12,14-hexaen-10-yl}-3,5-difluorophenyl)amino]ethyl}(methyl)amino)butanoic acid]"
13,< 0.1 µM,"CCN1C(=O)N(c2c(F)cc(NCCN3CC[C@@H](O)C3)cc2F)c2cc(C#N)ccc2-c2cc(Cl)cnc21 [1-231, 4-chloro-10-[2,6-difluoro-4-({2-[(3R)-3-hydroxypyrrolidin-1-yl]ethyl}amino)phenyl]-8-ethyl-9-oxo-6,8,10-triazatricyclo[9.4.0.0^2,7]pentadeca-1(11),2(7),3,5,12,14-hexaene-13-carbonitrile]"
14,< 0.1 µM,"CC(C)N1C(=O)N(c2c(F)cc(NCCNCCO)cc2F)c2cc(Cl)ccc2-c2cc(Cl)cnc21 [1-47, 4,13-dichloro-10-[2,6-difluoro-4-({2-[(2-hydroxyethyl)amino]ethyl}amino)phenyl]-8-(propan-2-yl)-6,8,10-triazatricyclo[9.4.0.0^2,7]pentadeca-1(11),2(7),3,5,12,14-hexaen-9-one]"
15,< 0.1 µM,"CCN1C(=O)N(c2c(F)cc(NCC3CNC3)cc2F)c2cc(C#N)ccc2-c2cc(Cl)cnc21 [1-145, 10-(4-{[(azetidin-3-yl)methyl]amino}-2,6-difluorophenyl)-4-chloro-8-ethyl-9-oxo-6,8,10-triazatricyclo[9.4.0.0^2,7]pentadeca-1(11),2(7),3,5,12,14-hexaene-13-carbonitrile]"
16,< 0.1 µM,"CC(C)N1C(=O)N(c2c(F)cc(NCCNCCO)cc2F)c2cc(C#N)ccc2-c2cc(F)cnc21 [1-85, 10-[2,6-difluoro-4-({2-[(2-hydroxyethyl)amino]ethyl}amino)phenyl]-4-fluoro-9-oxo-8-(propan-2-yl)-6,8,10-triazatricyclo[9.4.0.0^2,7]pentadeca-1(11),2(7),3,5,12,14-hexaene-13-carbonitrile]"
17,< 0.1 µM,"CCN1C(=O)N(c2c(F)cc(NCCNCCO)cc2F)c2cc(Cl)cc(C)c2-c2cc(F)cnc21 [1-31, 13-chloro-10-[2,6-difluoro-4-({2-[(2-hydroxyethyl)amino]ethyl}amino)phenyl]-8-ethyl-4-fluoro-15-methyl-6,8,10-triazatricyclo[9.4.0.0^2,7]pentadeca-1(11),2(7),3,5,12,14-hexaen-9-one]"
18,< 0.1 µM,"CCN1C(=O)N(c2c(F)cc(NCCNCCO)cc2F)c2cc(Cl)ccc2-c2cccnc21 [1-7, 13-chloro-10-[2,6-difluoro-4-({2-[(2-hydroxyethyl)amino]ethyl}amino)phenyl]-8-ethyl-6,8,10-triazatricyclo[9.4.0.0^2,7]pentadeca-1(11),2(7),3,5,12,14-hexaen-9-one]"
19,< 0.1 µM,"CCN1C(=O)N(c2c(F)cc(NCCNC)cc2F)c2cc(Cl)ccc2-c2cc(C3CC3)cnc21 [1-24, 13-chloro-4-cyclopropyl-10-(2,6-difluoro-4-{[2-(methylamino)ethyl]amino}phenyl)-8-ethyl-6,8,10-triazatricyclo[9.4.0.0^2,7]pentadeca-1(11),2(7),3,5,12,14-hexaen-9-one]"
20,< 0.1 µM,"CCN1C(=O)N(c2c(F)cc(NCCN[C@@H]3CC[C@@H]3O)cc2F)c2cc(C#N)ccc2-c2cc(F)cnc21 [1-204, 10-{2,6-difluoro-4-[(2-{[(1R,2S)-2-hydroxycyclobutyl]amino}ethyl)amino]phenyl}-8-ethyl-4-fluoro-9-oxo-6,8,10-triazatricyclo[9.4.0.0^2,7]pentadeca-1(11),2(7),3,5,12,14-hexaene-13-carbonitrile]"
21,< 0.1 µM,"CCN1C(=O)N(c2c(F)cc(NCCNCCO)cc2F)c2cc(Cl)c(C)cc2-c2cccnc21 [3-2, 13-chloro-10-[2,6-difluoro-4-({2-[(2-hydroxyethyl)amino]ethyl}amino)phenyl]-8-ethyl-14-methyl-6,8,10-triazatricyclo[9.4.0.0^2,7]pentadeca-1(11),2(7),3,5,12,14-hexaen-9-one]"
